Data on 25 compounds can be found in patent publication US8927550B2, “Heterocyclic compounds as CCR1 receptor antagonists” (Boehringer Ingelheim International GmbH, priority 2009, dated 2015).

SMILES strings stand for the structures.

One may read the IC50 as the point on the concentration scale where inhibition reaches its midpoint.

The target of this assay is T1, CCR1 (Homo sapiens, UniProt P32246).
T1 construct: host or cells: Non-adherent cells
T1 sequence (P32246 1-355): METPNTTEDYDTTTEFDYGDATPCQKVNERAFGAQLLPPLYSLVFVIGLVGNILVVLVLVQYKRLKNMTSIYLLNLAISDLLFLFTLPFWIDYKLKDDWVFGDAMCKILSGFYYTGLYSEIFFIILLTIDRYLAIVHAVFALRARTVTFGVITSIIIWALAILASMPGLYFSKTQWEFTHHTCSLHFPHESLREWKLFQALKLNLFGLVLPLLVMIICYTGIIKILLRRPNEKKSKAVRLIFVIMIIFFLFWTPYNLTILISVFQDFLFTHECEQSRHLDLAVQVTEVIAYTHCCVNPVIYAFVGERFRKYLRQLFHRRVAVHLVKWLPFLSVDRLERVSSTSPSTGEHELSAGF
The experiment in a line: Calcium flux in CCR1 transfected cells, Method B (Calcium 4 dye, HAMAMATSU FDSS6000), MIP-1alpha at EC80. Format: cell-based. As to conditions: cells stably expressing recombinant CCR1 and G-alpha-16, 30 minutes at 37 C then 30 minutes at room temperature. Here is the method: Compounds are assessed for the ability to block the interaction of CCR1 and MIP-1α in a functional cellular assay measuring calcium flux in CCR1 transfected cells.
Method B: Non-adherent cells purchased from Chemicon Corporation (HTS005C), stably expressing recombinant CCR1 and G-alpha-16 are grown in RPMI 1640 medium (Mediatech 10-080-CM) supplemented with 10% FBS, 0.4 mg/mL Geneticin and penicillin/streptomycin. On the day of the assay, the cells are loaded with Calcium 4 dye (Molecular Devices R7448) with Probenecid (Invitrogen P346400) at 8E5 cells/mL for 1 hour at room temperature. After 1 hour, they are seeded in a 384-well tissue culture-treated plate at a density of 20,000 cells/well. Appropriately diluted test compound is added to the well to achieve a top concentration of 3,000 nM (diluted 4-fold with 10 doses total). The final concentration of DMSO is 1%. The buffer is HBSS (Invitrogen 14025) with 20 mM HEPES at pH 7.4. The cells incubate 30 minutes at 37 C and then 30 minutes at room temperature. The plates are transferred to the HAMAMATSU FDSS6000 where MIP-1alpha in 1% BSA is added at the EC80 final concentration. All plates must be read within 4 hours of the start of dye-loading. Wells+/−MIP-1alpha containing diluted DMSO instead of compound serve as the controls. Data are analyzed using Activity Base software.
A general note: Calcium flux is commonly read through the fluorescence of an indicator in the cells.
Turning to `CC(C)(NC(=O)c1nccn2c(-c3ccc(F)cc3)ncc12)c1ccnc(Br)c1` [3-(4-Fluorophenyl)-imidazo[1,5-a]pyrazine-8-carboxylic acid [1-(2-bromopyridin-4-yl)-1-methyl-ethyl]-amide], the 50% inhibitory concentration (IC50) amounted to 1100 nM.

With `CS(=O)(=O)c1cc(CNC(=O)c2cncc3c2ccn3-c2ccc(F)cc2)ccn1` [1-(4-Fluorophenyl)-1H-pyrrolo[2,3-c]pyridine-4-carboxylic acid (2-methanesulfonyl-pyridin-4-ylmethyl)-amide], the IC50 came out at 455 nM.

For `CS(=O)(=O)c1cc(C2(NC(=O)c3nccn4c(-c5ccc(F)cc5)ncc34)CC2)ccn1` [3-(4-Fluorophenyl)-imidazo[1,5-a]pyrazine-8-carboxylic acid [1-(2-methanesulfonyl-pyridin-4-yl)-cyclopropyl]-amide], the IC50 amounted to 410 nM.

For `CC[C@H](NC(=O)c1cccn2c(-c3ccc(F)cc3)ncc12)c1ccnc(S(C)(=O)=O)c1` [3-(4-Fluorophenyl)-imidazo[1,5-a]pyridine-8-carboxylic acid [(S)-1-(2-methanesulfonyl-pyridin-4-yl)-propyl]-amide], the IC50 came to 2 nM.

In the case of `CC[C@H](NC(=O)c1nncc2c1cnn2-c1ccc(F)cc1)c1ccnc(S(C)(=O)=O)c1` [1-(4-Fluorophenyl)-1H-pyrazolo[3,4-d]pyridazine-4-carboxylic acid [(S)-1-(2-methanesulfonyl-pyridin-4-yl)-propyl]-amide], the IC50 stood at 3 nM.

As for `CC[C@H](NC(=O)c1nncc2c1cnn2-c1ccc(F)cc1)c1ccc(S(C)(=O)=O)nc1` [1-(4-Fluorophenyl)-1H-pyrazolo[3,4-d]pyridazine-4-carboxylic acid [(S)-1-(6-methanesulfonyl-pyridin-3-yl)-propyl]-amide], the IC50 was determined as 44 nM.

Take `CC[C@H](NC(=O)c1nccn2c(-c3ccc(F)cc3)ncc12)c1ccnc(S(C)(=O)=O)c1` [3-(4-Fluorophenyl)-imidazo[1,5-a]pyrazine-8-carboxylic acid [(S)-1-(2-methanesulfonyl-pyridin-4-yl)-propyl]-amide]: the IC50 was 30 nM.

Consider `CCC[C@H](NC(=O)c1cccn2c(-c3ccc(F)cc3)cnc12)c1ccc(Br)nc1` [3-(4-Fluorophenyl)-imidazo[1,2-a]pyridine-8-carboxylic acid [(S)-1-(6-bromopyridin-3-yl)-butyl]-amide], for which the IC50 was determined as 1100 nM.

Turning to `CC[C@H](NC(=O)c1cccc2c(-c3ccc(F)cc3)ncn12)c1ccc(S(C)(=O)=O)nc1` [1-(4-Fluorophenyl)-imidazo[1,5-a]pyridine-5-carboxylic acid [(S)-1-(6-methanesulfonyl-pyridin-3-yl)-propyl]-amide], the IC50 came out at 19 nM.

For `CC[C@H](NC(=O)c1cncc2c1ccn2-c1ccc(F)cc1)c1ccc(S(C)(=O)=O)nc1` [1-(4-Fluorophenyl)-1H-pyrrolo[2,3-c]pyridine-4-carboxylic acid [(S)-1-(6-methanesulfonyl-pyridin-3-yl)-propyl]-amide], the IC50 worked out at 21 nM.

In the case of `CC[C@H](NC(=O)c1cc(S(C)(=O)=O)cc2c1ccn2-c1ccc(F)cc1)c1ccc(S(C)(=O)=O)nc1` [1-(4-Fluorophenyl)-6-methanesulfonyl-1H-indole-4-carboxylic acid [(S)-1-(6-methanesulfonyl-pyridin-3-yl)-propyl]-amide], the IC50 came to 260 nM.

As to `CS(=O)(=O)c1cc(CNC(=O)c2nccn3c(-c4ccc(F)cc4)ncc23)ccn1` [3-(4-Fluorophenyl)-imidazo[1,5-a]pyrazine-8-carboxylic acid (2-methanesulfonyl-pyridin-4-ylmethyl)-amide], the IC50 stood at 600 nM.

For `CNS(=O)(=O)c1ccc(CNC(=O)c2cc(O)cc3c2ccn3-c2ccc(F)cc2)cc1` [1-(4-Fluorophenyl)-6-hydroxy-1H-indole-4-carboxylic acid 4-methylsulfamoyl-benzylamide], the IC50 worked out at 1400 nM.

As to `CC[C@H](NC(=O)c1cncc2c1ccn2-c1ccc(F)cc1)c1cnc(S(C)(=O)=O)s1` [1-(4-Fluorophenyl)-1H-pyrrolo[2,3-c]pyridine-4-carboxylic acid [(S)-1-(2-methanesulfonyl-thiazol-5-yl)-propyl]-amide], the IC50 was determined as 23 nM.

For the compound `C[C@H](NC(=O)c1nncc2c1cnn2-c1ccc(F)cc1)c1ccnc(S(C)(=O)=O)c1` [1-(4-Fluorophenyl)-1H-pyrazolo[3,4-d]pyridazine-4-carboxylic acid [(S)-1-(2-methanesulfonyl-pyridin-4-yl)-ethyl]-amide], the IC50 was 57 nM.

Turning to `CC[C@H](NC(=O)c1cccn2c(-c3ccc(F)cc3)ncc12)c1ccc(S(C)(=O)=O)nc1` [3-(4-Fluorophenyl)-imidazo[1,5-a]pyridine-8-carboxylic acid [(S)-1-(6-methanesulfonyl-pyridin-3-yl)-propyl]-amide], the IC50 turned out to be 17 nM.

Turning to `CC[C@H](NC(=O)c1cncc2c1ccn2-c1ccc(F)cc1)c1ccnc(S(C)(=O)=O)c1` [1-(4-Fluorophenyl)-1H-pyrrolo[2,3-c]pyridine-4-carboxylic acid [(S)-1-(2-methanesulfonyl-pyridin-4-yl)-propyl]-amide], the IC50 was 2 nM.

As for `C[C@H](NC(=O)c1cncc2c1ccn2-c1ccc(F)cc1)c1ccnc(S(C)(=O)=O)c1` [1-(4-Fluorophenyl)-1H-pyrrolo[2,3-c]pyridine-4-carboxylic acid [(S)-1-(2-methanesulfonyl-pyridin-4-yl)-ethyl]-amide], the IC50 was determined as 45 nM.

As to `CC[C@H](NC(=O)c1cccn2c(-c3ccc(F)cc3)cnc12)c1ccc(Br)nc1` [3-(4-Fluorophenyl)-imidazo[1,2-a]pyridine-8-carboxylic acid [(S)-1-(6-bromopyridin-3-yl)-propyl]-amide], the IC50 was found to be 1340 nM.

For the compound `CC[C@H](NC(=O)c1cncc2c1ccn2-c1ccc(F)cc1)c1cncc(S(C)(=O)=O)c1` [1-(4-Fluorophenyl)-1H-pyrrolo[2,3-c]pyridine-4-carboxylic acid [(S)-1-(5-methanesulfonyl-pyridin-3-yl)-propyl]-amide], the IC50 stood at 2 nM.

For `CS(=O)(=O)c1cccc(CNC(=O)c2cc(C#N)cc3c2ccn3-c2ccc(F)cc2)c1` [6-Cyano-1-(4-fluorophenyl)-1H-indole-4-carboxylic acid 3-methanesulfonyl-benzylamide], the IC50 was 2 nM.

Turning to `CCC[C@H](NC(=O)c1nccn2c(-c3ccc(F)cc3)ncc12)c1cncc(S(C)(=O)=O)c1` [3-(4-Fluorophenyl)-imidazo[1,5-a]pyrazine-8-carboxylic acid [(S)-1-(5-methanesulfonyl-pyridin-3-yl)-butyl]-amide], the IC50 is 6 nM.

`CC[C@H](NC(=O)c1cccc2c(-c3ccc(F)cc3)ncn12)c1ccc(Br)nc1` [1-(4-Fluorophenyl)-imidazo[1,5-a]pyridine-5-carboxylic acid [(S)-1-(6-bromopyridin-3-yl)-propyl]-amide]: the IC50 was determined as 96 nM.

In the case of `CCC[C@H](NC(=O)c1nccn2c(-c3ccc(F)cc3)ncc12)c1ccnc(S(C)(=O)=O)c1` [3-(4-Fluorophenyl)-imidazo[1,5-a]pyrazine-8-carboxylic acid [(S)-1-(2-methanesulfonyl-pyridin-4-yl)-butyl]-amide], the IC50 stood at 5 nM.

Regarding `CS(=O)(=O)c1cc(CNC(=O)c2nncc3c2cnn3-c2ccc(F)cc2)ccn1` [1-(4-Fluorophenyl)-1H-pyrazolo[3,4-d]pyridazine-4-carboxylic acid (2-methanesulfonyl-pyridin-4-ylmethyl)-amide], the IC50 worked out at 91 nM.
